Data on six compounds can be found in ChEMBL document CHEMBL2046410, “Computational design and discovery of "minimally structured" hERG blockers” (J Med Chem, 2012).

The target in one assay is Voltage-gated inwardly rectifying potassium channel KCNH2 (Homo sapiens, UniProt Q12809). As to the kind of experiment: Inhibition of human ERG expressed in HEK cells by patch clamp assay. In kind it is cell-based, HEK293. To be noted: read-out: IC50. (The patch-clamp technique gives a direct electrical read-out from membranes.)
Chain of Voltage-gated inwardly rectifying potassium channel KCNH2 (Q12809 whole entry): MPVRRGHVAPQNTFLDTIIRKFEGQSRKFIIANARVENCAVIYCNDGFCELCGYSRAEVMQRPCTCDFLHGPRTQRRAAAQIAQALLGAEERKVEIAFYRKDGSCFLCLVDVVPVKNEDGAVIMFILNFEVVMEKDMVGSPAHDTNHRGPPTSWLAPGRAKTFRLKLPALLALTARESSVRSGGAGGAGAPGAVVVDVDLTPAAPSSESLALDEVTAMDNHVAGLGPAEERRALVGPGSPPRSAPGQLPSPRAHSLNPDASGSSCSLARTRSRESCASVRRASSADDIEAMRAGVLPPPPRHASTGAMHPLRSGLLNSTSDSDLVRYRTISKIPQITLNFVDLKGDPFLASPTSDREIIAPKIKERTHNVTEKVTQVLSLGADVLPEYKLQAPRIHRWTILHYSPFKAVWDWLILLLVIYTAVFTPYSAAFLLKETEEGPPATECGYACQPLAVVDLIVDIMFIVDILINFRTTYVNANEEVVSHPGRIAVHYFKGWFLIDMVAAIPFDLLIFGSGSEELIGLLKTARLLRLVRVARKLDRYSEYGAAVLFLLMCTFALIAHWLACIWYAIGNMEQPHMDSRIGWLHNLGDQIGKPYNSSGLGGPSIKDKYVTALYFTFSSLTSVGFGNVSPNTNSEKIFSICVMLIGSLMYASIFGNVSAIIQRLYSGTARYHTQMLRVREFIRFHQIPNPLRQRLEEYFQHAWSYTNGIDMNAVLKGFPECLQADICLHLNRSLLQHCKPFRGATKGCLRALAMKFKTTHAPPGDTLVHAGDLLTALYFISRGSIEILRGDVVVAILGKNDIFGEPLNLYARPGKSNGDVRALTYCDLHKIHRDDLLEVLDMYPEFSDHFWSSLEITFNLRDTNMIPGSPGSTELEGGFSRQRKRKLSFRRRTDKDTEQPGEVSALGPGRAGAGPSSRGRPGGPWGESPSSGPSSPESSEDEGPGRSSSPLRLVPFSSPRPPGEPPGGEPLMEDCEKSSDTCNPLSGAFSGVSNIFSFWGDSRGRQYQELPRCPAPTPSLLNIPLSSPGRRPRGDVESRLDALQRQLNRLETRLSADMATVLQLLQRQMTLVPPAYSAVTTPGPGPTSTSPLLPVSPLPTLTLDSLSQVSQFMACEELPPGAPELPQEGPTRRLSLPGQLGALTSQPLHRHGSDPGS
Consider `c1ccc(CCNCCC(c2ccccc2)c2ccccc2)cc1`, for which the IC50 came to 2790 nM.

For the compound `c1ccc(CCCNCCC(c2ccccc2)c2ccccc2)cc1`, the IC50 came to 17 nM.

As to `c1ccc(CCCNCCN(c2ccccc2)c2ccccc2)cc1`, the IC50 was determined as 580 nM. In the case of `Fc1ccc(N(CCNCCCc2ccccc2)c2ccc(F)cc2)cc1`, the IC50 came out at 2.4 nM. `O=C(Cc1ccccc1)NCCN(c1ccccc1)c1ccccc1`: the IC50 was determined as 7860 nM. Regarding `O=C(CCc1ccccc1)NCCN(c1ccc(F)cc1)c1ccc(F)cc1`, the IC50 was found to be 192 nM.

Staying with this assay, now noted: read-out: pIC50 (converted).
As for `c1ccc(CCNCCC(c2ccccc2)c2ccccc2)cc1`, the IC50 was 3160 nM.
